Laboratory results reported in US11453632B2, “1-phenyl-2-phenylethane derivative” (KAO CORPORATION, priority 2018, dated 2022).

Legend:
[1] = system: prostate of testosterone-induced prostatic hyperplasia rat; assay: Efficacy on prostate in testosterone-induced prostatic hyperplasia rat; type: in vivo; conditions: testosterone 3 mg/kg/day plus test substance 0.1 or 1 mg/kg body weight/day, subcutaneous osmotic pump, 28 days, vs testosterone alone
From the text: 12-week-old male Slc:SD (SPF) rats were obtained from Japan SLC, Inc. An acclimatization period was established for 1 week after receipt. During the acclimatization period, the rats were allowed to freely ingest a powder diet (AIN-93G).
2) Implantation of Osmotic Pump
(§1) After body weight measurement, back hair was shaved under isoflurane (AbbVie GK) inhalation anesthesia, and carprofen was subcutaneously administered to the rats. Then, an incision of approximately 1 cm at the maximum was made on the cranial side in the back. An osmotic minipump Alzet (Muromachi Kikai Co., Ltd.) containing testosterone and compound 17-F or finasteride (Sigma-Aldrich Co. LLC) was subcutaneously implanted. From this osmotic pump, testosterone (3 mg/kg body weight/day) (Sigma-Aldrich Co. LLC) and compound 17-F (0.1 mg/body weight/day or 1 mg/kg body weight/day) or finasteride (0.1 mg/kg body weight/day or 1 mg/kg body weight/day) were continuously administered for 28 days. Since the implantation of the osmotic pump, the rats were allowed to freely ingest customized feed AIN-93G (Oriental Yeast Co., Ltd.) free from components derived from soybeans.
3) Photographing of Skin and Harvesting of Prostate
After a lapse of 28 days, body weights were measured, and subsequently, the rats were euthanized by blood letting under isoflurane anesthesia. Back hair was shaved, followed by photographing. Then, the abdominal cavity was opened to harvest the prostate on the ventral side. Wet weights were measured.

[2] = system: back skin browning induced by testosterone; assay: Effect on sebum secretion (back skin browning) in testosterone-treated rat; type: in vivo; conditions: testosterone 3 mg/kg/day plus test substance, subcutaneous osmotic pump, 28 days
From the text: as §1, with “12-week-old male Slc:SD (SPF) rats were obtained from Japan SLC, Inc. An acclimatization period was established for 1 week after receipt. During the acclimatization period, the rats were allowed to freely ingest a powder diet (AIN-93G). 2) Implantation of Osmotic Pump After” for “After”, “soybeans. 3) Photographing of Skin and Harvesting of Prostate After a lapse of 28 days, body weights were measured, and subsequently, the rats were euthanized by blood letting under isoflurane anesthesia. […] Wet weights were measured. […]” for “soybeans.”

## CC(C)(C)NC(=O)[C@H]1CC[C@H]2[C@@H]3CC[C@H]4NC(=O)C=C[C@]4(C)[C@H]3CC[C@]12C [finasteride, reference compound]
[1]
  size of the prostate (visual, FIG. 1): Concentration-dependent decrease in the size of the prostate
  weight of the prostate corrected with the body weight (FIG. 2): decreased to almost the same level as in the DMSO administration group
[2]
  skin browning induced by testosterone (sebum secretion, FIG. 3): such an inhibitory effect was not confirmed
